Like-named read-outs stand apart in the source and are kept apart here.
Experiments:
[1] = target: T1, IKs (slowly activating delayed rectifier K^+ current) (Cavia porcellus, UniProt O70344); assay: Voltage-clamp measurement of IKs in guinea pig ventricular myocytes; format: cell-based; conditions: read-out: % Block (Guinea Pig Ventricle) IKs
T1 construct: Guinea pig ventricular myocytes were isolated; from tissue; host or cells: isolated guinea pig ventricular myocytes
Method: (§1) Guinea pig ventricular myocytes were isolated using a modification of the procedure described by Mitra et al., Am. J. Physiol. 249:H1056-60 (1985). Excised hearts were perfused through the aorta (retrograde fashion) at a rate of 10 ml/min with oxygenated, warmed (37° C.) solutions described below. The heart was initially perfused for 7 minutes with a Tyrode's solution containing, (in mM): 132 NaCl, 4 KCl, 1.2 MgCl2, 10 HEPES, 5 glucose, pH=7.2. The heart was then perfused with the same nominally Ca^2+ -free solution containing 150 units/ml Type II collagenase (Worthington) and 0.5 units/ml Type XIV protease (Sigma) for 8 minutes. This perfusate was followed by a Tyrode's solution containing 0.2 mM CaCl2 (without enzymes) for 5 minutes. The digested ventricles were cut into small pieces and gently shaken until cells were visibly dispersed. The cells were stored at room temperature until use, within 8 hours after isolation.
(§2) The suction microelectrode technique described by Giles, W. R. and Shibata, E. F., "Voltage clamp of bull-frog cardiac pacemaker cells: a quantitative analysis of potassium currents", J. Physiol. 368:265-292 (1985) was used to voltage clamp the cells. Microelectrodes were made by using a two stage puller from square bore (1.0 mm o.d.) borosilicate capillary tubing. Pipettes were filled with 0.5 M K gluconate, 25 mM KCl and 5 mM K2 ATP. The electrodes had resistances of 3 to 7 M.OMEGA. when filled with this solution. After establishing whole-cell recording mode, negative pressure was maintained on the pipette using a 1 ml gas-tight syringe attached via air tight tubing to the suction port of the microelectrode holder. This minimized dialysis of the cell with the pipette solution.
(§3) To record K^+ currents, the cells were bathed in a Ca^2+ -free Tyrode's solution containing […]. […] To record Ca^2+ currents, the cells were bathed in Tyrode's solution containing 1.8 mM Ca^2+ without nisoldipine. The cell chamber was superfused with solutions at a rate of 1-2 ml/minute, while maintaining the temperature at 35±1° C. A List EPC-7 clamp amplifier was used to voltage clamp the isolated cells. […] (Sanguinetti M. C. and Jurkiewicz, N. K., "Two components of cardiac delayed rectifier K^+ current: Differential sensitivity to block by Class III antiarrhythmic agents", J. Gen Physiol 1990; 96:194-214.) Data was analyzed as % block from control membrane currents.
(§4) Nisoldipine was prepared as a 4 mM stock solution in polyethylene glycol 200. […] At the final concentrations used neither polyethylene glycol 200 nor dimethyl sulfoxide had any effect on any of the measured membrane currents.
(§5) Selectivity for block of cardiac K^+ channels, IK1, IKr, and IKs was determined as previously described in guinea pig ventricular myocytes (U.S. Pat. No. 5,428,031).

[2] = target: T2, IKr (rapidly activating delayed rectifier K^+ current) (Cavia porcellus, UniProt O08703); assay: Voltage-clamp measurement of IKr in guinea pig ventricular myocytes; format: cell-based; conditions: read-out: % Block (Guinea Pig Ventricle) IKr
T2 construct: Guinea pig ventricular myocytes were isolated; from tissue; host or cells: isolated guinea pig ventricular myocytes
T2 sequence (O08703 1-1294): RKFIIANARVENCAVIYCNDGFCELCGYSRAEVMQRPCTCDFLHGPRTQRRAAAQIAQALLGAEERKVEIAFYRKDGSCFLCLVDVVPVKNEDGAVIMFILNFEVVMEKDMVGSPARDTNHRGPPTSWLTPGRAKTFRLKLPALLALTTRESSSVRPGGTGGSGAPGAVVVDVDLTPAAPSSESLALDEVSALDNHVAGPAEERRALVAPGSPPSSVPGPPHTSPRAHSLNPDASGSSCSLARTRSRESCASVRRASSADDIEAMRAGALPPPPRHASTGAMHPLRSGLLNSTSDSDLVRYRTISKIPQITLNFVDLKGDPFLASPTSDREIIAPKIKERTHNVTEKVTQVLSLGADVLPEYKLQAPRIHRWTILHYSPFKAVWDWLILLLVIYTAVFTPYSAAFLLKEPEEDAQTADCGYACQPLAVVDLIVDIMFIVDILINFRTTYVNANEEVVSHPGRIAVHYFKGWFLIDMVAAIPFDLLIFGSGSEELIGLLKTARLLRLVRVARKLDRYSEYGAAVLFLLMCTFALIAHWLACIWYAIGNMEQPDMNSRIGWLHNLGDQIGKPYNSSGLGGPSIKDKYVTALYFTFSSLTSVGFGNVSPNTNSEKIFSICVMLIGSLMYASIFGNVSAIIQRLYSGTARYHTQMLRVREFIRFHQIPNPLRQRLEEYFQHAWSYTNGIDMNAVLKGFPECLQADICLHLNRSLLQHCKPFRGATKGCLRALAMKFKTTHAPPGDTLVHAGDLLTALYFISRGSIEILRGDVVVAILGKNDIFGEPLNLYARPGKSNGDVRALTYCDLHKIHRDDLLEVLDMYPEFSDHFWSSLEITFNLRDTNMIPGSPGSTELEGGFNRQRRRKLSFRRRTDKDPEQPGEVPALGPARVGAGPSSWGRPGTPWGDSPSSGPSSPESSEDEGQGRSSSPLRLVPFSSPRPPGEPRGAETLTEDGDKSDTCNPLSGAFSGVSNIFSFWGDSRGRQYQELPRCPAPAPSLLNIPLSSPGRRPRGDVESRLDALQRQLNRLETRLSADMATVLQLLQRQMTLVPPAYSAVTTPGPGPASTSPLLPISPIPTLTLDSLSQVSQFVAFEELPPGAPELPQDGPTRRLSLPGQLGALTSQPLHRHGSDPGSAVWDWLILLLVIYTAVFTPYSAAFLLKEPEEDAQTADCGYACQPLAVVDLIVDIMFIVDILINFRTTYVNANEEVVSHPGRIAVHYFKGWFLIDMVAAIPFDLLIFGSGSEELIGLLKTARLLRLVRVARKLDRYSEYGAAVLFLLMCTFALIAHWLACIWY
Method: as §1, §2, §3, §4, §5

[3] = test system: atrial flutter
Method: In this model, atrial flutter was induced following a Y-shaped surgical lesion comprised of an intercaval incision and a connecting incision across the right atrium. […] Bipolar electrodes also were sutured to the left ventricle for measurement of ventricular excitation threshold (VET) and ventricular relative (VRRP at 2× VET) and effective refractory periods (VERP at 10×VET). The following cardiac electrophysiologic parameters also were measured before test agent administration and at the termination of the study: AH interval, an index of AV nodal conduction; HV interval, an index of His-ventricular conduction time; P-A interval, an index of intra-atrial conduction; and H-EG interval, an index of ventricular conduction; and paced ECG QT interval. AV nodal functional refractory period (AVNFRP) and SA conduction time (SACT) were determined by the introduction of atrial extrastimuli during sinus rhythm, and the monitoring of ventricular response. Electrocardiographic intervals were determined during sinus rhythm; the rate-corrected ECG QTc interval was calculated as: QTc=QT (msec)/√R-R (sec).
Sustained atrial flutter was initiated in three dogs by electrical burst pacing (6-20 Hz) of the atria; atrial rates ranged from 440-530 cycles/min.

[4] = test system: IK1 (inward rectifier K^+ current); assay: Voltage-clamp measurement of IK1 in guinea pig ventricular myocytes; format: cell-based
Method: as §1, §2, §3, §4, §5

T1 sequence (O70344 whole entry): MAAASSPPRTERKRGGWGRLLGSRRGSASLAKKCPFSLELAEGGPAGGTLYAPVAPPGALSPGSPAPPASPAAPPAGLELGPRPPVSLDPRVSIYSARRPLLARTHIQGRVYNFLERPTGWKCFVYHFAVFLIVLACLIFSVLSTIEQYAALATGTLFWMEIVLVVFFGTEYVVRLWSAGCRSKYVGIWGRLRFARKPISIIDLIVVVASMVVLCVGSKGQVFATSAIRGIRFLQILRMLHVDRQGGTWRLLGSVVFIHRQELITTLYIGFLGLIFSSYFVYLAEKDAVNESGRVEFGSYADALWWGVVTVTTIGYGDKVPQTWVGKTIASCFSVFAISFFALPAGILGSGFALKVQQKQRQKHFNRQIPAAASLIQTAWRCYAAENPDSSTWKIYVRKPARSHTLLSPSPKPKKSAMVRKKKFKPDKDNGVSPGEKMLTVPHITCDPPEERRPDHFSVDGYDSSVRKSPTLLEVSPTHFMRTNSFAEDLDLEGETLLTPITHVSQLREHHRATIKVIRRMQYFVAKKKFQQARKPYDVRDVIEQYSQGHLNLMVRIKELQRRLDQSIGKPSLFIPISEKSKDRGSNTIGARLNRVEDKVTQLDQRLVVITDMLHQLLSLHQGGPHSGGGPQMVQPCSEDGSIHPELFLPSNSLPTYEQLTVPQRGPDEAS
T1 sequence (Q60409 whole entry partner): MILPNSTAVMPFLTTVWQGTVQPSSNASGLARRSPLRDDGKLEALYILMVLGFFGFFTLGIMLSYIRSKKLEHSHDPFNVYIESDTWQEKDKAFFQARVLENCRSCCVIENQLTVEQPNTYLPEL

SMILES | inhibition at 3 µM [1] [%] | inhibition at 3 µM [2] [%] | atrial effective refractory period, post-treatment ([3]; at doses effective in terminating atrial arrhythmia, increase from 138±5 msec pretreatment) [ms] | effect on atrioventricular nodal or ventricular function ([3]; dog, in vivo) | time to termination of atrial arrhythmia after test agent administration ([3]; i.v. bolus 3 mg/kg (two dogs) or 10 mg/kg (third dog)) [s] | atrial rate during atrial flutter ([3]; i.v. bolus 3 mg/kg (two dogs) or 10 mg/kg (third dog), initial rates 440-530 cycles/min) | termination of atrial arrhythmia ([3]; i.v. bolus 3 mg/kg, in two of three dogs) | termination of atrial arrhythmia ([3]; i.v. bolus 10 mg/kg, in the third of three dogs) | % Block (Guinea Pig Ventricle) IK1 ([4]; @ 3 μM) [%] | inhibition at 10 µM ([1]; @ 10 μM) [%] | inhibition at 10 µM ([2]; @ 10 μM) [%] | % Block (Guinea Pig Ventricle) IK1 ([4]; @ 10 μM) [%]
Cc1cc(C)c(CP(=O)(c2ccccc2)c2ccccc2)c(-c2ccc(F)c(C)c2)c1 [Compound C, 2-(Diphenylphosphinylmethyl)-4'-fluoro-3,5,3'-trimethyl-biphenyl] | 12.2 | 11.1 | 153 ± 8 | no indication of effect on atrioventricular nodal or ventricular function | 10 to 120 | slowed atrial rate | terminated the atrial arrhythmia | terminated the atrial arrhythmia | 15.1 |  |  | 
COc1ccc(-n2nc(Sc3ccc(C)cc3)c(C)c(C#N)c2=O)cc1 [Compound B] | 13.6 | 4.2 |  |  |  |  |  |  | 4.4 |  |  | 
COc1ccc(-n2nc(Sc3ccc(Cl)cc3)c(C)c(C#N)c2=O)cc1 [Compound A, 6-(4-Chlorophenylthio)-2-(4-methoxyphenyl)-5-methyl-3-oxo-2,3-dihydropyridazine-4-carbonitrile] |  |  |  |  |  |  |  |  |  | 4 | 29 | 6

Reference: patent US5935945A, “Methods of treating or preventing cardiac arrhythmia” (Merck & Co., Inc., priority 1997, dated 1999)
